Values of other authors as cited in article PMC12368482, “Antiprotozoal Activity of Highly Substituted Pyrazole and Pyrimidine Derivatives” (Chemmedchem, 2025).

Legend:
Parameters in all cases: method as in PMID 17949068
Leishmania donovani = conditions: ref [15]; read-out: IC50 against Leishmania donovani; cited from earlier work
normal myoblast L6 cells = conditions: ref [15]; cited from earlier work
[1] = system: P. falciparum chloroquine (CQ)‐resistant strain; conditions: ref [15]; read-out: IC50 against P. falciparum CQ‐resistant strain; cited from earlier work

Question: Which IC50 (Leishmania donovani) does the source give for `O=[N+]([O-])c1ccc(-n2nc(-c3ccc(Oc4ccccc4)cc3)cc2N2CCOCC2)cc1` [II] here?
Answer: The IC50 was 4.8 µM.

Question: And the “cytotoxicity against normal myoblast L6 cells” value (normal myoblast L6 cells)?
Answer: Its value is “not cytotoxic”.

Question: And the IC50 [1]?
Answer: Its IC50 is 3.7 µM.
